The text below walks through data of patent US6794544B2, “Method for the preparation of tetrahydrobenzothiepines” (Pharmacia Corporation, priority 2000, dated 2004).

The series can be described thus: Water uptake experiments (Dynamic Vapor Sorption, water sorption/desorption isotherms). Format: physicochemical. The protocol: A dry sample of the crystalline form having a melting point or a decomposition point of about 278° C. to about 285° C. (i.e., Form 11) typically gains less than about 1% of its own weight when equilibrated under 80% relative humidity (RH) air at 25° C. […] For the present purposes, the term “essentially 0% RH” means less than about 1% RH. The term “equilibrated” means that the change in weight of a sample over time at a given relative humidity is less than 0.0003% ((dm/dt)/m0×100, where m is mass in mg, m0 is initial mass, and t is time in minutes).
Water sorption experiments are performed on a Dynamic Vapor Sorption (DVS) apparatus (DVS-1000 manufactured by Surface Measurements Systems, Inc.). Experiments are performed at 25° C. by initially drying the material of interest (about 10 mg sample) from 30% relative humidity (RH) (ambient room condition) to about 9% RH in a stepwise fashion (10% RH step) by purging with dry nitrogen until no further weight change was observed. The samples are then exposed to a stepwise (10% RH steps) increase in RH from about 0 to about 90% RH. Each successive step is initiated when the change in weight over time at the relative humidity was less than 0.0003% ((dm/dt)/m0×100, where m is mass in mg, m0 is initial mass, and t is time in minutes). […] The data are collected on a computer and analyzed using SMS′ proprietary MS-Excel macro interface software.

Turning to `CCCCC1(CCCC)CS(=O)(=O)c2ccc(N(C)C)cc2[C@@H](c2ccc(OCc3ccc(C[N+]45CCN(CC4)CC5)cc3)cc2)[C@H]1O` [Form II, (4R,5R)-1-((4-(4-(3,3-dibutyl-7-(dimethylamino)-2,3,4,5-tetrahydro-4-hydroxy-1,1-dioxido-1-benzithiepin-5-yl)phenoxy)methyl)phenyl)methyl-4-aza-1-azoniabicyclo[2.2.2]octane chloride], the “weight gain of the sample (of its own weight)” value (dried at essentially 0% RH at about 25° C. under dry nitrogen, then equilibrated under about 80% RH air at about 25° C.) was “less than 1%”. For the same molecule, the hygroscopicity result (dry sample equilibrated under 80% RH air at 25° C.) is on record as “essentially nonhygroscopic”.
